The record followed here is publication PMC5854716, “Synthesis, molecular docking, ctDNA interaction, DFT calculation and evaluation of antiproliferative and anti-Toxoplasma gondii activities of 2,4-diaminotriazine-thiazole derivatives” (Medicinal Chemistry Research, 2018).

Assay [1] has as its system normal mouse fibroblast Balb/3T3 cells. In words: In vitro cytotoxicity (SRB), Balb/3T3. Format: cell-based. The following applies: mean ± SD; for IC50: Mus musculus, BALB/3T3, 72 h exposure; for IC50 Balb/3T3: 72 h exposure. The protocol:
Biphenotypic B myelomonocytic leukemia MV4-11, human lung carcinoma A549, human breast carcinoma MCF-7, and normal mouse fibroblast BALB/3T3 cells were obtained from American Type Culture Collection (Rockville, Maryland, USA). All the cell lines are being maintained at the Institute of Immunology and Experimental Therapy, Wroclaw, Poland. MV4-11 cells were cultured in RPMI 1640 medium (Gibco, UK) with 2 mM L-glutamine adjusted to contain 1.0 mM sodium pyruvate, and 10% fetal bovine serum (FBS) (all from Sigma-Aldrich, Germany). A549 cells were cultured in RPMI 1640+ Opti-MEM (1:1) (both from Gibco, UK), MCF-7 cells in Eagle medium (IIET, Wroclaw, Poland), BALB/3T3 in Dulbecco medium (IIET, Poland) supplemented with 2 mM L-glutamine and 1.0 mM sodium pyruvate, 10% fetal bovine serum (all from Sigma-Aldrich, Germany). The MCF-7 cell culture was supplemented with 0.8 mg/l of insulin (Sigma-Aldrich, Germany). All culture media were supplemented with 100 units/ml penicillin, and 100 µg/ml streptomycin (both from Polfa Tarchomin S.A., Poland). All cell lines were grown at 37 °C with 5% CO2 humidified atmosphere (Łączkowski et al. [2014], [2016a]). Prior to usage, the compounds were dissolved in DMSO and culture medium (1: 9) to the concentration of 1 mg/ml, and subsequently diluted in culture medium to reach the required concentrations (0.1, 1, 10, and 100 µg/ml) (Łączkowski et al. [2014], [2016a]). Twenty-four hours prior to the addition of the tested compounds, the cells counted using Burker hemocytometer were plated in 96-well plates (Sarstedt, Germany) at a density of 1 × 10^4 cells per well. The assay was performed after 72 h of exposure to varying concentrations of the tested agents. The in vitro cytotoxic effect of all agents was examined using the SRB assay for adherent cells (A549, MCF-7, and BALB/3T3) or MTT assay for leukemia cells (MV4-11) as described previously. […] Each compound in each concentration was tested in triplicate in a single experiment, which was repeated 3–7 times (Rubinstein et al. [1990]; Bramson et al. [1995]). Cells were attached to the bottom of plastic wells by fixing them with cold 50% TCA (trichloroacetic acid, POCH, Gliwice, Poland) on top of the culture medium in each well. The plates were incubated at 4 °C for 1 h and then washed five times with tap water. The cellular material fixed with TCA was stained with 0.1% sulforhodamine B (SRB, Sigma-Aldrich, Germany) and dissolved in 1% acetic acid (POCH, Gliwice, Poland) for 30 min. Unbound dye was removed by rinsing (4×) in 1% acetic acid. The protein-bound dye was extracted with 10 mM unbuffered Tris base (Sigma-Aldrich, Germany) for determination of the optical density (λ = 540 nm) in a computer-interfaced, 96-well Synergy H4 (BioTek Instruments USA) photometer microtiter plate reader (Sidoryk et al. [2012]).

The subject of assay [2] is Toxoplasma gondii BK strain. In words: T. gondii tachyzoite intracellular proliferation in VERO host cells ([3H]uracil incorporation). Format: cell-based. The following applies: VERO host cells; for activity at 0.9 µg/mL / activity at 1.8 µg/mL / activity at 3.9 µg/mL / activity at 7.8 µg/mL / activity at 15.6 µg/mL / activity at 31.2 µg/mL / activity at 62.5 µg/mL / activity at 125 µg/mL / IC50: Toxoplasma gondii; for IC50 / IC50 (50% inhibition of T. gondii proliferation in vitro): GraphPad Prism curves; for IC50: read-out: IC50 (50% inhibition of T. gondii proliferation in vitro). The protocol: The epithelial cell line VERO (ATCC-Catalog No. CCL-81^TM), derived from the kidney of the African green monkey, Cercopithecus aethiops and fibroblast cell line L-929 (ATCC-Catalog No. CCL-1^TM), derived from Mus musculus (http://www.atcc.org) were grown in Iscoves’s Modified Dulbecco’s Medium (IMDM) supplemented with 10% (v/v) fetal bovine serum (FBS), plus 2 mM L-glutamine, 100 U/ml penicillin, 100.00 µg/ml streptomycin, 5 × 10^−5 M 2-mercaptoethanol and maintained at 37 °C in a 10% CO2 atmosphere. Subcultures were performed via enzymatic cell dissociation in 0.25% trypsin. After dissociation, the cells were placed in culture medium at 4 °C with 10% FBS to inhibit the action of trypsin. The isolated cells were centrifuged for 10 min at 1000×g at 4 °C, and the cells were grown in new bottles. This procedure was repeated when cells reached a confluence of ~90%. All commercial reactants and solvents were purchased from either Sigma-Aldrich Laborchemikalien GmbH (Dzitko et al. [2014]).
Suspensions of the compounds 4a–l were freshly prepared (5 mg/ml DMSO) before the cells were exposed, and diluted to appropriate concentrations; 0.9, 1.8, 3.9, 7.8, 15.6, 31.2, 62.5, and 125.00 μg/ml with the culture medium. Cells treated with 2.5% DMSO-solvent served as a control in each experiment.
Stock solutions of the Sulfadiazine (100 mg/ml 1 N NaOH; Catalog No. S8626) was freshly prepared before each experiment, and diluted to appropriate concentrations: 5.00, 25.00, 50.00, 125.00, 250.00, 500.00, 1250.00, and 2500.00 μg/ml, respectively in IMDM complete medium. All commercial reactants and solvents were purchased from either Sigma-Aldrich Laborchemikalien GmbH.
Tachyzoites of T. gondii, BK strain, were maintained in female C57BL/6 (H-2^b) and BALB/c (H-2^d) mice (with genetically determined high and low susceptibility, respectively to Toxoplasma infection) via serial intraperitoneal inoculation of 10^5–10^6 parasites per mouse in phosphate-buffered saline (PBS). After 48 to 96 h, parasites were harvested via peritoneal lavage using PBS, pH 7.2, and centrifuged at 200×g for 5 min to remove blood cells and cell debris. The supernatant containing tachyzoites was collected and centrifuged again at 2000×g for 15 min. The final pellet was resuspended in IMDM, quantified in a Burker’s chamber, and used in experimental assays. Inbred mice were kept under standard laboratory conventional conditions. All experimental procedures were conducted according to guidelines of the 9. Local Ethics Commission for Experiments on Animals in Lodz.
VERO, (2 × 10^4 cells/100 µl/well) were grown in complete medium (IMDM) on 96-well plates. After 24 h incubation, a medium was removed and then T. gondii […] tachyzoites, suspended in culture medium supplemented with 0.9–125.00 μg/ml diaminotriazines 4a–l and as a control-sulfadiazine (5.0–2500.0 μg/ml), were added (2 × 10^5 tachyzoites/200 µl/well) to the cell monolayers. After subsequent 48 h incubation 1 µCi/well of [^3H] uracil (Moravek Biochemicals Inc., Brea, CA, USA) was applied to each microculture for further 18–20 h. The amount of the isotope incorporated into the parasite nucleic acid pool, corresponding to the parasite growth, was measured by liquid scintillation counting with 1450 Microbeta Plus Liquid Scintillation Counter (Wallac Oy, Turku, Finland). The cpms of host cells alone (below 250/microculture) were subtracted from cpms of T. gondii infected microcultures (Dzitko et al. [2014]).

SMILES strings stand for the structures. Values after ≈ are worked out from the molar mass of the structure shown.

With `C/C(=N\Nc1nc(-c2ccc(Cl)cc2)cs1)c1ccc(Nc2nc(N)nc(N)n2)cc1` [Compound 4b, (E)-N^2-(4-(1-(2-(4-(4-chlorophenyl)-1,3-thiazol-2-yl)hydrazinylidene)ethyl)phenyl)-1,3,5-triazine-2,4,6-triamine], the figures for the IC50 in assay [1] and in assay [2] were greater than 100 mg/L and 33 mg/L (≈ 73.1 µM), respectively. Also, the activity at 0.9 µg/mL in assay [2] (0.9 µg/ml) turned out to be 100%. Further, the activity at 1.8 µg/mL in assay [2] (1.8 µg/ml) was 106%. Further, the activity at 3.9 µg/mL in assay [2] (3.9 µg/ml) amounted to 101%. The activity at 7.8 µg/mL in assay [2] (7.8 µg/ml) was found to be 98.2%. For the same compound, the activity at 15.6 µg/mL in assay [2] (15.6 µg/ml) is 74.6%. The activity at 31.2 µg/mL in assay [2] (31.2 µg/ml) is 52.2%. Besides, the activity at 62.5 µg/mL in assay [2] (62.5 µg/ml) was 26.1%. The activity at 125 µg/mL in assay [2] (125.0 µg/ml) was 14.7%.

In the case of `C/C(=N\Nc1nc(-c2ccc3[nH]c(=O)oc3c2)cs1)c1ccc(Nc2nc(N)nc(N)n2)cc1` [Compound 4l, (E)-6-(2-(2-(1-(4-(4,6-diamino-1,3,5-triazin-2-yloamino)phenyl)ethylidene)hydrazinyl)thiazol-4-yl)-benzo[d]oxazol-2(3H)-on], the “IC50 Balb/3T3” value in assay [1] was greater than 100 mg/L. Also, the “T. gondii intracellular proliferation” value is reported as 99.98% in assay [2] (0.9 µg/ml); 101.25% in assay [2] (1.8 µg/ml); 106.91% in assay [2] (3.9 µg/ml); 79.89% in assay [2] (7.8 µg/ml); 56.46% in assay [2] (15.6 µg/ml); 45.15% in assay [2] (31.2 µg/ml). Besides, in assay [2] (62.5 µg/ml), the “T. gondii intracellular proliferation” value is 20.34%. In addition, the “IC50 (50% inhibition of T. gondii proliferation in vitro)” value in assay [2] came out at 23.09 mg/L.

Turning to `C/C(=N\Nc1nc(-c2ccc(F)cc2)cs1)c1ccc(Nc2nc(N)nc(N)n2)cc1` [Compound 4a, (E)-N^2-(4-(1-(2-(4-(4-fluorophenyl)-1,3-thiazol-2-yl)hydrazinylidene)ethyl)phenyl)-1,3,5-triazine-2,4,6-triamine], the IC50 in assay [1] is 62.6 ± 8.69 mg/L; in assay [2], 51.6 mg/L (≈ 119 µM). Moreover, the activity at 0.9 µg/mL in assay [2] (0.9 µg/ml) is 102%. For the same compound, in assay [2] (1.8 µg/ml), the activity at 1.8 µg/mL was 101%. In addition, the activity at 3.9 µg/mL in assay [2] (3.9 µg/ml) amounted to 101%. The activity at 7.8 µg/mL in assay [2] (7.8 µg/ml) is 108%. The activity at 15.6 µg/mL in assay [2] (15.6 µg/ml) stood at 99.1%. Further, the activity at 31.2 µg/mL in assay [2] (31.2 µg/ml) stood at 77.6%. Also, in assay [2] (62.5 µg/ml), the activity at 62.5 µg/mL stood at 34.9%. The activity at 125 µg/mL in assay [2] (125.0 µg/ml) amounted to 17.6%.

With `CC(=O)Nc1ccc(-c2csc(N/N=C(\C)c3ccc(Nc4nc(N)nc(N)n4)cc3)n2)cc1` [Compound 4g, (E)-N^2-(4-(2-(2-(1-(4-(4,6-diamino-1,3,5-triazin-2-yloamino)phenyl)ethylidene)hydraziny)thiazol-4-yl)phenyl)-acetamide], the “IC50 Balb/3T3” value in assay [1] was greater than 100 mg/L. Moreover, the “T. gondii intracellular proliferation” value was determined as 100.01% in assay [2] (0.9 µg/ml); 100.69% in assay [2] (1.8 µg/ml); 69.35% in assay [2] (3.9 µg/ml); 66.62% in assay [2] (7.8 µg/ml); 46.71% in assay [2] (15.6 µg/ml); 42.95% in assay [2] (31.2 µg/ml). Further, the “T. gondii intracellular proliferation” value is given as 41.74% in assay [2] (62.5 µg/ml) and 19.11% in assay [2] (125.0 µg/ml). For the same compound, in assay [2], the “IC50 (50% inhibition of T. gondii proliferation in vitro)” value was determined as 18.70 mg/L.

Regarding `C/C(=N\Nc1nc(-c2ccc(I)cc2)cs1)c1ccc(Nc2nc(N)nc(N)n2)cc1` [Compound 4e, (E)-N^2-(4-(1-(2-(4-(4-iodophenyl)-1,3-thiazol-2-yl)hydrazinylidene)ethyl)phenyl)-1,3,5-triazine-2,4,6-triamine], the results for the IC50 in assay [1] and in assay [2] were greater than 100 mg/L and 49.2 mg/L (≈ 90.5 µM), respectively. The activity at 0.9 µg/mL in assay [2] (0.9 µg/ml) was found to be 103%. Besides, in assay [2] (1.8 µg/ml), the activity at 1.8 µg/mL turned out to be 104%. For the same compound, the activity at 3.9 µg/mL in assay [2] (3.9 µg/ml) is 99.9%. The activity at 7.8 µg/mL in assay [2] (7.8 µg/ml) came to 92.8%. Further, in assay [2] (15.6 µg/ml), the activity at 15.6 µg/mL came out at 80.7%. Besides, in assay [2] (31.2 µg/ml), the activity at 31.2 µg/mL is 75.1%. Besides, the activity at 62.5 µg/mL in assay [2] (62.5 µg/ml) was 48.7%. Besides, in assay [2] (125.0 µg/ml), the activity at 125 µg/mL stood at 14.6%.

As to `C/C(=N\Nc1nc(-c2ccccc2)cs1)c1ccc(Nc2nc(N)nc(N)n2)cc1` [Compound 4k, (E)-N^2-(4-(1-(2-(4-phenyl-1,3-thiazol-2-yl)hydrazinylidene)ethyl)phenyl)-1,3,5-triazine-2,4,6-triamine], the results for the IC50 in assay [1] and in assay [2] were greater than 100 mg/L and 31.5 mg/L (≈ 75.5 µM), respectively. Moreover, the activity at 0.9 µg/mL in assay [2] (0.9 µg/ml) was found to be 100%. In addition, the activity at 1.8 µg/mL in assay [2] (1.8 µg/ml) stood at 100%. In addition, the activity at 3.9 µg/mL in assay [2] (3.9 µg/ml) turned out to be 96.3%. The activity at 7.8 µg/mL in assay [2] (7.8 µg/ml) came to 85.9%. The activity at 15.6 µg/mL in assay [2] (15.6 µg/ml) stood at 63.6%. The activity at 31.2 µg/mL in assay [2] (31.2 µg/ml) turned out to be 49.4%. Further, in assay [2] (62.5 µg/ml), the activity at 62.5 µg/mL was found to be 36.1%. In assay [2] (125.0 µg/ml), the activity at 125 µg/mL came out at 17.7%.
